Laboratory results reported in patent publication US8226963B2, “Feed-through lignin-pesticide compositions” (Wellmark International, priority 2005, dated 2012).
Values joined by “and” are separate entries in the source; they are usually repeats but may differ in a detail not shown here. Equal values may be shown once.

Columns and labels:
Assay type in all cases: in vivo
[1] = Methoprene found in manure of cats fed treated cat food; settings: for Calculated Methoprene (ppm) in manure: cats Q, S, T
Protocol: This example illustrates a study in cats comparing an inventive formulation containing lignin-methoprene complexes with a formulation containing free methoprene.
Three cats were fed the formulations for a week and their manure was tested every 24 hours.

[2] = Enteric Matrix/Coating of Methoprene Feed Through Study in chickens; settings: Feed Rate 23.8 ppm
Text: This example illustrates a study of methoprene versus enteric coated methoprene. The results below indicate that there is no difference in % recovery between technical grade methoprene and enteric coated methoprene or matrix treated methoprene.

[3] = Methoprene found in manure of horses fed treated feed as top dressing; settings: Average of Day 0-Day 10
Protocol: This example illustrates a study in horses comparing an inventive formulation containing a lignin-methoprene complex with a formulation containing free methoprene.
Four horses were fed the formulations for eleven days and their manure was tested every 24 hours.

[4] = Methoprene found in manure of cows fed treated feed as top dressing; settings: Average of Day 1-Day 10
Protocol: This example illustrates a study in cattle comparing an inventive formulation containing a lignin-methoprene complex with a formulation containing free methoprene.
Four cows were fed the formulations for eleven days and their manure was tested every 24 hours.

[5] = Barium (BaSO4) passing into the manure of chickens; settings: for Amount of Barium, % found in manure: 0.093% in feed
Text: This example illustrates a determination of the maximum concentration of any active agent that will pass into the manure of chickens.
Briefly, chicken feed was formulated using a pulverized cattle bolus which contained barium in the form of BaSO4.

[6] = horse Bettor Lad, AI fed 8.94 ppm

Q: Which “Day 1 Avg. methoprene in manure” value ([1]; cat food @ 36.2 ppm, 24 hr) does the source give for COC(C)(C)CCCC(C)C/C=C/C(C)=C/C(=O)OC(C)C (stereo not drawn) [free methoprene, methoprene] here?
A: Its value is 0.63 ppm.

Q: What about the “Day 1 Avg. methoprene recovered in manure (%)” value ([1]; cat food @ 36.2 ppm, 24 hr) of the same compound?
A: The value was “(1.7%)”.

Q: What about the “Day 2 Avg. methoprene in manure” value ([1]; cat food @ 36.2 ppm, 48 hr) of the same compound?
A: The value was 2.2 ppm.

Q: What about the “Day 2 Avg. methoprene recovered in manure (%)” value ([1]; cat food @ 36.2 ppm, 48 hr) of the same compound?
A: Its value is “(6.1%)”.

Q: What about the “Day 3 Avg. methoprene in manure” value ([1]; cat food @ 36.2 ppm, 72 hr) of the same compound?
A: Its value is 1.8 ppm.

Q: And the “Day 3 Avg. methoprene recovered in manure (%)” value ([1]; cat food @ 36.2 ppm, 72 hr)?
A: Its value is “(5.0%)”.

Q: What about the “Day 4 Avg. methoprene in manure” value ([1]; cat food @ 36.2 ppm, 96 hr) of the same compound?
A: The value was 1.9 ppm.

Q: And the “Day 4 Avg. methoprene recovered in manure (%)” value ([1]; cat food @ 36.2 ppm, 96 hr)?
A: Its value is “(5.2%)”.

Q: And the “Calculated Methoprene (ppm) in manure” value ([1]; cat food @ 36.2 ppm, Day 0 (0 hr))?
A: Its value is 0 ppm.

Q: What about the “Calculated Methoprene (ppm) in manure” value ([1]; cat food @ 36.2 ppm, Day 1 (24 hr), listed as Free Methoprene Lot # 491-166) of the same compound?
A: The value was 0.6 ppm and 0.7 ppm.

Q: What about the “Calculated Methoprene (ppm) in manure” value ([1]; cat food @ 36.2 ppm, Day 2 (48 hr), listed as Free Methoprene Lot # 491-166) of the same compound?
A: Its value is 2.4 ppm and 2.5 ppm and 1.6 ppm.

Q: What about the “Calculated Methoprene (ppm) in manure” value ([1]; cat food @ 36.2 ppm, Day 3 (72 hr), listed as Free Methoprene Lot # 491-166) of the same compound?
A: The value was 2.0 ppm and 1.5 ppm.

Q: What about the “amount of methoprene recovered from the manure of cats” value ([1]; range of daily averages Day 1-Day 4) of the same compound?
A: The value was 1.7-6.1%.

Q: And the “% Recovery” value [2]?
A: The value was 12.22%.

Q: And the “Manure Rate ppm (methoprene)” value ([2]; feed Egg Buster)?
A: Its value is 2.91 ppm.

Q: And the “AI manure ppm” value [3, 6]?
A: Its value is 1.29 ppm.

Q: What about the Percent pass through [3, 6] of the same compound?
A: Its Percent pass through is 14.4%.

Q: And the “AI manure ppm” value ([3]; horse Dancer, AI fed 8.61 ppm)?
A: The value was 1.30 ppm.

Q: And the Percent pass through ([3]; horse Dancer, AI fed 8.61 ppm)?
A: Its Percent pass through is 15.1%.

Q: What about the “Avg. % pass through by Group” value ([3]; horses, two per group) of the same compound?
A: The value was 14.75%.

Q: And the AI manure ppm ([4]; cow 10 R/W, AI fed 8.94 ppm)?
A: Its AI manure ppm is 0.16 ppm.

Q: What about the Percent pass through ([4]; cow 10 R/W, AI fed 8.94 ppm) of the same compound?
A: The Percent pass through was 1.8%.

Q: And the AI manure ppm ([4]; cow 16 Black, AI fed 12.58 ppm)?
A: Its AI manure ppm is 0.35 ppm.

Q: What about the Percent pass through ([4]; cow 16 Black, AI fed 12.58 ppm) of the same compound?
A: Its Percent pass through is 2.8%.

Q: What about the “Avg. % pass through by Group” value ([4]; cows, two per group) of the same compound?
A: Its value is 2.3%.

Q: With O=S(=O)([O-])[O-].[Ba+2] [Barium, BaSO4] as the compound, how does the “% of initial BaSO4 found in manure” value ([5]; 4 hr.) read?
A: Its value is 1.78%.

Q: And the “Amount of Barium, % found in manure” value ([5]; 4 hr. after feeding)?
A: Its value is 0.00165%.

Q: And the “% of initial BaSO4 found in manure” value ([5]; 24 hr.)?
A: The value was 48.90%.

Q: And the “Amount of Barium, % found in manure” value ([5]; 24 hr. after feeding)?
A: Its value is 0.0455%.

Q: What about the “% of initial BaSO4 found in manure” value ([5]; 48 hr.) of the same compound?
A: The value was 59.90%.

Q: What about the “Amount of Barium, % found in manure” value ([5]; 48 hr. after feeding) of the same compound?
A: Its value is 0.0557%.

Q: And the “% of initial BaSO4 found in manure” value ([5]; 72 hr.)?
A: Its value is 50.60%.

Q: And the “Amount of Barium, % found in manure” value ([5]; 72 hr. after feeding)?
A: The value was 0.0471%.
